Test system: NSA mice
Experiment: Hypothermia study (block of CP 55,940-induced hypothermia)
Assay type: in vivo
Design: Hypothermia 3 mg/kg / Hypothermia 0.3 mg/kg: unit not given here
Conditions: for Hypothermia ID50: block of CP 55,940-induced hypothermia
Experimental: . […] Core body temperatures were then obtained at various time points following CP 55,940 administration. Core body temperature (to the nearest 0.1° C.) was obtained by rectal probe.

Structure (SMILES) | Hypothermia 0.3 mg/kg | Hypothermia 3 mg/kg | Hypothermia ID50 [mg/kg]
CCCCNC(=O)c1ccc2c(c1)N=C(c1ccc(Cl)cc1)c1ccc(F)cc1S2 [drawing 1562] | 11 | 53 | –
O=C(NN1CCCCCC1)c1ccc2c(c1)N=C(c1ccc(Cl)cc1F)c1ccccc1S2 [drawing 1563] | 2 | 54 | –
CC(C)CCNC(=O)c1ccc2c(c1)N=C(c1cccc(Cl)c1)c1ccccc1S2 [drawing 1564] | 35 | 64 | –
O=C(NCc1cccnc1)c1ccc2c(c1)N=C(c1ccc(Cl)c(Cl)c1)c1ccccc1S2 [drawing 1565] | 1 | 19 | –
COc1cccc(C2=Nc3cc(C(=O)NCCCC(F)(F)F)ccc3Sc3ccccc32)n1 [drawing 1566] | – | 46 | –
O=C(NCc1ccco1)c1ccc2c(c1)N=C(c1ccc(Cl)c(Cl)c1)c1ccccc1S2 [drawing 1567] | – | 54 | –
CCCCNC(=O)c1ccc2c(c1)N=C(c1ccc(Cl)s1)c1ccccc1S2 [drawing 1568] | 12 | 53 | 2.3
O=C(NCCc1cccnc1)c1ccc2c(c1)N=C(c1ccc(Cl)c(Cl)c1)c1ccccc1S2 [drawing 1569] | – | 41 | –
CC(C)CNC(=O)c1ccc2c(c1)N=C(c1ccc(Cl)c(Cl)c1)c1ccccc1S2 [drawing 1570] | – | 40 | –
O=C(NCc1cccc(Cl)c1)c1ccc2c(c1)N=C(c1ccc(F)cc1)c1ccccc1S2(=O)=O [drawing 1571] | – | 45 | –
COc1cccc(C2=Nc3cc(C(=O)NC4CCC(F)(F)CC4)ccc3Sc3ccccc32)n1 [drawing 1572] | – | 19 | –
O=C(NCc1ccccc1Cl)c1ccc2c(c1)N=C(c1cccc(Cl)c1)c1ccccc1S2 [drawing 1573] | – | −2 | –
O=C(NC1CCCCC1)c1ccc2c(c1)N=C(c1cccc(Cl)c1)c1ccccc1S2 [drawing 1574] | – | 74 | –
O=C(NN1CCCCC1)c1ccc2c(c1)N=C(c1ccc(Cl)cc1)c1ccccc1S2 [drawing 1575] | −18 | 69 | –
CC(C)CNC(=O)c1ccc2c(c1)N=C(c1ccc(Cl)cc1F)c1ccccc1S2 [drawing 1576] | 0 | 71 | –
CCCCNC(=O)c1ccc2c(c1)N=C(c1ccc(Cl)s1)c1cc(Cl)ccc1S2 [drawing 1577] | – | −9 | –
CC(C)CNC(=O)c1ccc2c(c1)N=C(c1ccc(Cl)s1)c1ccccc1S2 [drawing 1578] | 23 | 73 | –
CCCCNC(=O)c1ccc2c(c1)N=C(c1cccc(Cl)c1)c1cc(F)ccc1S2 [drawing 1579] | – | 8 | –
O=C(NC1CCCCC1)c1ccc2c(c1)N=C(c1ccc(F)cc1)c1ccccc1S2 [drawing 1580] | 28 | 82 | –
O=C(NCc1ccco1)c1ccc2c(c1)N=C(c1cccc(Cl)c1)c1ccccc1S2 [drawing 1581] | 24 | 67 | 1
O=C(NN1CCCCC1)c1ccc2c(c1)N=C(c1ccc(F)cc1)c1ccccc1S2 [drawing 1582] | 7 | 87 | 0.96
O=C(NCc1cccc(Cl)c1)c1ccc2c(c1)N=C(c1ccc(Cl)cc1)c1cc(F)ccc1S2 [drawing 1583] | 14 | −4 | –
O=C(NN1CCCCCC1)c1ccc2c(c1)N=C(c1ccc(Cl)s1)c1ccccc1S2 [drawing 1584] | 33 | 83 | 0.59
O=C(NCCc1cccnc1)c1ccc2c(c1)N=C(c1ccc(Cl)s1)c1ccccc1S2 [drawing 1585] | −14 | 76 | 1.7
O=C(NN1CCCCCC1)c1ccc2c(c1)N=C(c1cccc(Cl)c1)c1ccccc1S2 [drawing 1586] | −27 | 86 | 1.14
